Data on two compounds can be found in patent publication US20250154554A1, “ANTIMICROBIAL SUSCEPTIBILITY” (priority 2022, published 2025).

The subject of assay [1] is Gram-negative bacteria (Enterobacterales, Pseudomonas, Acinetobacter). The following applies: for CLSI RM R / EUCAST RM R: number of strains resistant; for CLSI RM S / EUCAST RM S: number of strains susceptible.
Protocol: (§1) For Colistin (on gram-negative bacteria) and vancomycin (in the case of Staphylococcus), the method used to determine the antimicrobial susceptibility was broth microdilution [5]. […] Standard methodologies were performed from the same inoculum used to spike the blood cultures. Quality control of the reference methods was also performed according to the recommendations of EUCAST and CLSI.
(§2) All the strains were classified as S, I or R according the reference methods. MIC was determined for vancomycin and colistin. The presence of ESBL on Enterobacterales group I, together with the screening for ESBL on Enterobacterales group II, and the screening for AmpC and presence of carbapenemases according EUCAST protocol for detection of mechanisms of resistance were also performed.
(§3) Positive blood cultures were spiked in blood agar and colonies identified and submitted to antimicrobial susceptibility assay according reference disk diffusion method and/or to MIC values determined by microdilution. The results were analysed using the most recent EUCAST breakpoint tables and the M100 (29th ed.) breakpoint tables from CLSI.
The test system of assay [2] is K. pneumoniae. The assay can be described thus: MIC of strains giving very major errors (VME). The format is cell-based. As to conditions: Klebsiella pneumoniae, strain EB 021, site 2, read-out: MIC.
Protocol: as §1, §3
Assay [3] has as its system Enterobacterales. The assay can be described thus: Broth microdilution MIC of meropenem for screening of carbapenemases. The format is cell-based. The following applies: the 2 strains found false negative in the carbapenemase screening. A general note: In broth dilution the organism is exposed to a series of concentrations in liquid medium.
Protocol: Standard methodologies were performed from the same inoculum used to spike the blood cultures. Quality control of the reference methods was also performed according to the recommendations of EUCAST and CLSI.
In assay [4] the test system is S. aureus. The assay can be described thus: MIC of strains giving very major errors (VME). The format is cell-based. As to conditions: strain ST 099, site 2.
Protocol: as §1, §3
The subject of assay [5] is Gram-positive bacteria (Staphylococcus spp, Enterococcus spp). The assay can be described thus: Reference method (RM): disk diffusion and/or broth microdilution, S/I/R classification, Gram-positive strains.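 For all read-outs here: susceptibility categories assigned with the latest EUCAST breakpoint tables or CLSI M100 29th edition breakpoints, with quality control of the reference methods following EUCAST and CLSI guidance.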 It is filed as cell-based. As to conditions: for CLSI RM R / EUCAST RM R: number of strains resistant; for CLSI RM S / EUCAST RM S: number of strains susceptible.
Protocol: as §1, §2, §3
[6] abbreviates: CLSI, total of 3 sites, blood cultures.
Where [7] appears, read: EUCAST, total of 3 sites, blood cultures.
Setting [8] is: CLSI, FASTinov, Porto, spiked on blood cultures.
Where [9] appears, read: CLSI, Hospital Ramon et Cajal, Madrid, patients' blood cultures.
[10] abbreviates: EUCAST, FASTinov, Porto, spiked on blood cultures.
The mark [11] stands for this setting: EUCAST, Hospital Ramon et Cajal, Madrid, patients' blood cultures.
[12] abbreviates: CLSI, Hospital S. João, Porto, patients' blood cultures.
Setting [13] is: EUCAST, Hospital S. João, Porto, patients' blood cultures.
The mark [14] stands for this setting: CLSI, FASTinov, Porto, spiked blood cultures.
Where [15] appears, read: EUCAST, FASTinov, Porto, spiked blood cultures.
[16] abbreviates: CLSI, Hospital Ramon et Cajal, Madrid, patients blood cultures.
Setting [17] is: EUCAST, Hospital Ramon et Cajal, Madrid, patients blood cultures.

Read-outs that look alike come from different tables or passages of the source.

By MIC is commonly meant the lowest concentration found to suppress growth. For the compound `C[C@@H](O)[C@H]1C(=O)N2C(C(=O)O)=C(S[C@@H]3CN[C@H](C(=O)N(C)C)C3)[C@H](C)[C@H]12` [Meropenem], in assay [1] (setting [6]), the “RM I (strains intermediate by reference method)” value is 5. In addition, the “RM R (strains resistant by reference method)” value in assay [1] (setting [6]) stood at 10; in assay [1] (setting [7]), 9. Further, the “RM S (strains susceptible by reference method)” value is listed as 217 in assay [1] (setting [6]) and 223 in assay [1] (setting [7]). Also, the “CLSI RM I” value in assay [1] (number of strains I, CLSI, FASTinov, Porto, spiked on blood cultures) was found to be 5. The figures for the “CLSI RM R” value in assay [1] (setting [8]) and in assay [1] (setting [9]) were 7 and 3, respectively. Also, the “EUCAST RM R” value in assay [1] (setting [10]) worked out at 6; in assay [1] (setting [11]), 3. The “CLSI RM S” value in assay [1] (setting [8]) is on record as 69; in assay [1] (setting [9]) it was 72; in assay [1] (setting [12]) it was 76. Moreover, the “EUCAST RM S” value in assay [1] (setting [10]) was found to be 75; in assay [1] (setting [11]), 72; in assay [1] (setting [13]), 76. The results for the MIC in assay [2] and in assay [3] were 16 µg/mL and 0.5 µg/mL, respectively.

Regarding Penicillin, the “MIC” value in assay [4] turned out to be 0.25 µg/mL. Moreover, the “RM R (strains resistant by reference method)” value is 82 in assay [5] (setting [14]), 209 in assay [5] (setting [6]), 28 in assay [5] (setting [15]) and 56 in assay [5] (setting [7]). Moreover, the “RM S (strains susceptible by reference method)” value turned out to be 49 in assay [5] (setting [14]), 94 in assay [5] (setting [6]), 7 in assay [5] (setting [15]) and 19 in assay [5] (setting [7]). The “CLSI RM R” value in assay [5] (setting [16]) is listed as 53; in assay [5] (setting [12]), 74. In addition, the “EUCAST RM R” value turned out to be 10 in assay [5] (setting [17]) and 18 in assay [5] (setting [13]). Also, the results for the “CLSI RM S” value in assay [5] (setting [16]) and in assay [5] (setting [12]) were 15 and 30, respectively. Besides, the “EUCAST RM S” value in assay [5] (setting [17]) is listed as 2; in assay [5] (setting [13]) it was 10.
